Earlier results as cited in patent publication US20040013710A1, “Hydrolyzable tannin extracts from plants effective at inhibiting bacterial adherence to surfaces” (priority 2003, published 2004).

Test system: type 1 E. coli

In the case of O=C(CO)[C@@H](O)[C@H](O)[C@H](O)CO [fructose], the “inhibition of Type I adherence” value is given as “inhibited”.
